Entries after “also recorded” stand apart in the source; their conditions may differ.
Assays:
[1] = target: MsbA from Salmonella typhimurium (detergent solubilized, purified) (Salmonella typhimurium) (UniProt P63359); assay: cell-based or functional assay
MsbA [2] = target: T1, MsbA (Salmonella typhimurium, UniProt P63359); assay: ATPase activity of detergent solubilized MsbA, linked enzyme assay; type: biochemical
T1 construct: 23-residue pET19b fusion leader with deca-histidine tag (N); made in house; host or cells: E. coli BL21 (DE3)
Method: ATPase Activity. ATPase activity was measured using an ATP-regenerating system described by Vogel and Steinhart, and modified by Urbatsch et al. Briefly, 1 μg of MsbA was added to 100 μl of Linked Enzyme (LE) buffer at 37° C. containing 10 mM ATP, 12 mM MgCl2, 6 mM phosphoenolpyruvate (PEP), 1 mM NADH, 10 units of lactate dehydrogenase (LDH), 10 units of pyruvate kinase (PK), and 50 mM Tris-HCl, pH 7.5. ATP hydrolysis was measured as the decrease in absorbance of NADH at 340 nm using a DXT880 multiplate spectrofluorimeter (Beckman-Coulter). Activity of MsbA in the presence of either E. coli polar lipids (10 μg/ml) or a non-ABC, ATPase inhibitor cocktail (1 mM EGTA, 1 mM NaN3, 0.2 mM ouabain) was measured (FIGS. 28-30). Each data point is the average of 5 independent measurements with standard error bars shown.

MsbA [3] = target: MsbA (Escherichia coli, UniProt P60752); conditions: cited from earlier work
Chain of MsbA (Escherichia coli, UniProt P60752) (P60752 whole entry, species assumed): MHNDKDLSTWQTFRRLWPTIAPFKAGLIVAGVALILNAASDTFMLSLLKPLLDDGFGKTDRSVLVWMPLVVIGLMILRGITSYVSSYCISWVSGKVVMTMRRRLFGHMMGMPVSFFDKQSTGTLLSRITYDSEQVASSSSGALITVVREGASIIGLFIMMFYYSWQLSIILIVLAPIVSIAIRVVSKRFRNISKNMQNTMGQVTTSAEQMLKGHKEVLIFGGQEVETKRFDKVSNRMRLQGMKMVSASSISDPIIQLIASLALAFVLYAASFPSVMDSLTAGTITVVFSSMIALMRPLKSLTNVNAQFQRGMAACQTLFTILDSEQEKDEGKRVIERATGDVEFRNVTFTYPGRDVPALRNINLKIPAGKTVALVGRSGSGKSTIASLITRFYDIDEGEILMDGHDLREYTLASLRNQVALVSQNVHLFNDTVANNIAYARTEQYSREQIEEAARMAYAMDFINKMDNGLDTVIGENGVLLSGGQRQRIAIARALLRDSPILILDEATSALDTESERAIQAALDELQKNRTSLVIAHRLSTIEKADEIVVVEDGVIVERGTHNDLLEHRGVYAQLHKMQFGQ

P-gp = conditions: human and murine MDR cell lines; cited from earlier work
[4] = test system: ΔacrAB E. coli cells overexpressing MsbA; assay: Doxorubicin retention in ΔacrAB E. coli cells overexpressing MsbA; type: cell-based; conditions: 0-100 μM PSC; change of fluorescence at 400 sec versus 0 sec; P<0.05
Method: Doxorubicin Retention. A pET 15b vector containing the msbA gene from Salmonella typhimurium LT2 was transformed into an E. coli strain deficient in the multiple-drug efflux pump AcrAB (ECΔacrAB). Single colony cultures were grown to optical density (OD600 nm) of 0.6 in the presence of 1 mM IPTG to induce overexpression of MsbA, harvested and washed three times with 100 mM potassium phosphate buffer (pH 7.5) containing 5 mM MgSO4 and concentrated to an OD600 of 20. Cellular accumulation of doxorubicin was accomplished by incubation of cells with 11.5 μM doxorubicin and 40 μM carbonyl cyanide m-chlorophenylhydrazone (CCCP) while shaking for 1 hour at 37° C. The cells were then washed three times and incubated for 15 minutes at 37° C. with 40 μM CCCP and 0, 1, 10, 25, 50 or 100 μM PSC. Efflux was initiated by addition of 25 mM glucose and fluorescence in the cell suspensions was monitored at 16-second time intervals with a DXT880 multiplate spectrofluorimeter (Beckman-Coulter) with excitation at 485 nm and emission at 595 nm for 900 seconds. […] Cellular doxorubicin retention was measured as a change of fluoresence at time=400 sec versus time=0 sec. […] Results are the average of 3 experiments, with 3-8 measurements per experiment. Statistical significance was assigned with the two-way analysis of variance (ANOVA). A P<0.05 is considered significant.

Wild type E. coli cells = assay: Doxorubicin retention in wild type E. coli cells; type: cell-based; conditions: 50 μM PSC
[5] = target: the molecule itself; assay: X-ray crystal structure of MsbA.ADP.Vi.Ra LPS, 4.2 Å

PSC-833, [3'-Desoxy-3'-oxo-MeBmt]1-[Val]2-Ciclosporin (peptide)
ATPase activity of detergent solubilized MsbA (linked enzyme assay) (% over basal activity) [1]: < 55

COc1cccc2c1C(=O)c1c(O)c3c(c(O)c1C2=O)C[C@@](O)(C(=O)CO)C[C@@H]3O[C@H]1C[C@H](N)[C@H](O)[C@H](C)O1 [Doxorubicin, doxorubicin]
effect on ATPase activity (MsbA [2]): stimulates ATPase activity in a dose dependent manner | concentration of maximum stimulation of ATPase activity (MsbA [2]; dose dependent stimulation): 100 µM

lipid A
stimulation of MsbA ATPase (MsbA [3]; studies in vitro): specifically stimulated

C/C=C/C[C@@H](C)C(=O)[C@H]1C(=O)N[C@@H](C(C)C)C(=O)N(C)CC(=O)N(C)[C@@H](CC(C)C)C(=O)N[C@@H](C(C)C)C(=O)N(C)[C@@H](CC(C)C)C(=O)N[C@@H](C)C(=O)N[C@H](C)C(=O)N(C)[C@@H](CC(C)C)C(=O)N(C)[C@@H](CC(C)C)C(=O)N(C)[C@@H](C(C)C)C(=O)N1C [PSC, [3′-Desoxy-3′-oxo-MeBmt]^1-[Val]^2-Ciclosporin]
inhibition of P-gp mediated drug accumulation (P-gp): potent inhibitor | doxorubicin retention [4]: alters the retention of doxorubicin; also recorded: mediates doxorubicin retention | increase in doxorubicin retention (Wild type E. coli cells): less than 10% | stimulation of ATPase over basal activity (MsbA [2]; PSC at concentrations of 50-250 μM, basal activity 1.25 μmol ATP/min/mg of protein): up to 55% | effect on MsbA ATPase activity (MsbA [2]; concentrations less than 50 μM): modulated | effect on doxorubicin stimulated ATPase activity of MsbA (MsbA [2]; doxorubicin stimulated): modulates doxorubicin stimulated ATPase activity

CCCCCCCCCCCCCC(=O)O[C@H](CCCCCCCCCCC)CC(=O)O[C@@H]1[C@@H](NC(=O)C[C@@H](CCCCCCCCCCC)OC(=O)CCCCCCCCCCC)[C@H](OC[C@H]2O[C@H](OP(=O)(O)O)[C@H](NC(=O)C[C@H](O)CCCCCCCCCCC)[C@@H](OC(=O)C[C@H](O)CCCCCCCCCCC)[C@@H]2O)O[C@H](CO[C@]2(C(=O)O)C[C@@H](O[C@]3(C(=O)O)C[C@@H](O)[C@@H](O)[C@@H]([C@H](O)CO)O3)[C@@H](O)[C@@H]([C@H](O)CO)O2)[C@H]1OP(=O)(O)O [Kdo2-lipid A]
stimulatory effect on ATP activity of MsbA (MsbA [3]; compared with Ra LPS): larger stimulatory effect

B1: MsbA from Salmonella typhimurium (detergent solubilized, purified) (other)
chain: MHNDKDLSTWQTFRRLWPTIAPFKAGLIVAGIALILNAASDTFMLSLLKPLLDDGFGKTDRSVLLWMPLVVIGLMILRGITSYISSYCISWVSGKVVMTMRRRLFGHMMGMPVAFFDKQSTGTLLSRITYDSEQVASSSSGALITVVREGASIIGLFIMMFYYSWQLSIILVVLAPIVSIAIRVVSKRFRSISKNMQNTMGQVTTSAEQMLKGHKEVLIFGGQEVETKRFDKVSNKMRLQGMKMVSASSISDPIIQLIASLALAFVLYAASFPSVMDSLTAGTITVVFSSMIALMRPLKSLTNVNAQFQRGMAACQTLFAILDSEQEKDEGKRVIDRATGDLEFRNVTFTYPGREVPALRNINLKIPAGKTVALVGRSGSGKSTIASLITRFYDIDEGHILMDGHDLREYTLASLRNQVALVSQNVHLFNDTVANNIAYARTEEYSREQIEEAARMAYAMDFINKMDNGLDTIIGENGVLLSGGQRQRIAIARALLRDSPILILDEATSALDTESERAIQAALDELQKNRTSLVIAHRLSTIEQADEIVVVEDGIIVERGTHSELLAQHGVYAQLHKMQFGQ
notes: also called ST-MsbA; ABC Transporter MsbA
binding result [5]: binds

From patent publication US20070105085A1 (Scripps Research, published 2007)
